Reference: patent publication US6534676B2, “Method to treat chronic heart failure and/or elevated cholesterol levels using 3,5-diiodothyropropionic acid and method to prepare same” (The Arizona Board of Regents on Behalf of the University of …, priority 2001, dated 2003)

What was measured:
[1] = normal primates; cited from earlier work
[2] = test system: nuclear T3 receptors of the c-erbA proto-oncogene family; details: background statement; cited from earlier work
[3] = Dose-ranging study of DITPA in normal volunteers: thyroid hormone measurements; format: in vivo, human; details: for Thyrotropin: baseline 3.53 ± 1.00; for Thyrotropin / Free T4 / Total T4 / rT3: mean ± SEM; for Free T4: baseline 1.04 ± .04; for Total T4: baseline 8.73 ± .85; for rT3: baseline 23.23 ± 1.71
Experimental: A dose-ranging study was performed with seven (7) normal volunteers. Study participants comprised men between the ages of 18 and 65 years of age. Before participating in the study, a complete physical examination, electrocardiogram, and echocardiogram were obtained. […] On day 1, these normal volunteers were started on 1.875 mg/kg in two divided doses per day. This treatment regimen was continued for two weeks. At the end of the second week, the initial laboratory studies were repeated. The dose was then doubled to 3.75 mg/kg and the volunteers were treated for two additional weeks. At the end of this time physical examination and all laboratory variables again were measured. Volunteer data were analyzed using Student's paired t-test. Baseline data in DITPA and placebo groups were compared by Student's unpaired t-test. Comparison of placebo and drug treated groups was made by repeated measures ANOVA (SPSS Version 9.5, SPSS Chicago, 11). If P values for drug-time interactions were significant a priori contrasts were performed of the drug-time interaction for two weeks versus baseline. When data were available only at baseline and four week, comparisons were made by difference scores. Baseline values for each participant were subtracted from values after four weeks of treatment and the differences between DITPA and placebo treatments then were compared. […] Table II summarizes thyroid hormone measurements after two and four weeks of treatment with DITPA in normal volunteers.

[4] = test system: single myocytes from infarcted rabbit hearts; details: cited from earlier work
[5] = post-infarction models, alone or with an angiotensin I-converting enzyme inhibitor; cited from earlier work
[6] = Heart failure patients: echocardiography; format: in vivo, human; details: for Shortening velocity: baseline 0.69 ± 0.15; for Ratio of early to late filling: baseline 1.10 ± 0.21; for LV diastolic dimension: baseline 6.84 ± 0.33; for Fractional shortening: baseline 17.0 ± 3.5; for Isovolumic relaxation time: baseline 92.2 ± 9.5; for LV mass: baseline 495.8 ± 45.9; for LV end-systolic dimension: baseline 5.72 ± 0.41
Experimental: (§1) DITPA cross-reacted with antibodies for detection of T3, which consequently was not measured. Renal and hepatic function tests also were performed. Patients were randomly assigned in double-blind fashion to receive either DITPA at a dosage of 1.875 mg/kg daily or placebo in two or three divided doses. For the first four days of drug administration patients were monitored on a telemetry unit. Thereafter, weekly electrocardiograms were performed and patients were examined for changes in thyroid or cardiac status or evidence of drug toxicity.
(§2) At the end of two weeks an echocardiogram was obtained. If there was no clinical evidence of progression of heart failure or development of an arrhythmia the dose of DITPA was increased to 3.75 mg/kg daily. After an additional two weeks of treatment with the higher dosage of the drug patients were readmitted to the hospital and the tests performed in the initial evaluation were repeated.
(§3) M-mode, two-dimensional, and Doppler echocardiograms were obtained with an ultrasonographic system equipped with a […] transducer (GE VingMed, Milwaukee, Wis.) according to the recommendation of the American Society of Echocardiography. Ejection fraction was measured by gated radionuclide myocardial imaging.

[7] = Double-blind DITPA versus placebo study in patients with congestive heart failure: clinical effects and tolerability; format: in vivo, human; details: for Weight: baseline 98.7 ± 6.6, mean ± SE; for NY Heart Association functional class: baseline 2.5 ± 0.2; for Diastolic Blood Pressure: baseline 75.8 ± 4.2; for Heart Rate: baseline 81.3 ± 4.4; for Systolic Blood Pressure: baseline 122.8 ± 4.9
Experimental: In clinical trials discussed below wherein DITPA was orally administered to volunteers and patients, the DITPA was mixed under the supervision of a registered pharmacist with lactose and packed into gelatin capsules containing 50 mg of the active ingredient. Identical capsules were packed with lactose to serve as placebo medication.
Patients were eligible for enrollment in these clinical studies if they had symptoms of heart failure and an ejection fraction of less than 35%. Patients were required to be in sinus rhythm. Treatment with digitalis, angiotensin converting enzyme inhibitors, and diuretics were allowed, but β-adrenergic blocking agents were not permitted.
Three patients in the placebo group and one patient receiving DITPA were taking an HMG-CoA reductase inhibitor. Patients were excluded from the study if they were receiving amiodarone, had unstable angina, myocardial infarction within 6 months, significant aortic stenosis, hepatic or renal insufficiency, anemia (hematocrit<30%), pre-existent thyroid disease, sensitivity to iodine, active cancer or any other life-threatening disease.
All patients were hospitalized before initiating treatment and a right heart catheterization, radionuclide ejection fraction and echocardiogram were performed. Serum samples were drawn for measurement of thyrotropin, total T4, free T4, and reverse T3.
as §1, §2, §3
Twenty-two patients underwent the initial right heart catheterization and were randomized to receive the subject drug or placebo. Nineteen patients completed the study (mean age 61.6, range 47 to 76). Patient functional classes, according to the New York Heart Association classification were II (n=12), III (n=7). One patient had dilated cardiomyopathy. The remaining patients had coronary artery disease, which was considered to be the most likely etiology of congestive heart failure. There was one death in a patient receiving placebo. One patient in the DITPA group was withdrawn because of abdominal pain and subsequently found to have cholelithiasis.

[8] = normal volunteers, after 2 weeks (1.875 mg/kg/day)
[9] = normal volunteers, after 4 weeks (3.75 mg/kg/day)
[10] = echocardiography, after 2 weeks (1.875 mg/kg daily)
[11] = echocardiography, after 4 weeks (3.75 mg/kg daily)
[12] = heart failure patients, after 2 weeks (1.875 mg/kg daily)
[13] = heart failure patients, after 4 weeks (3.75 mg/kg daily)

O=C(O)CCc1cc(I)c(Oc2ccc(O)cc2)c(I)c1 [DITPA, 3,5-Diiodothyropropionic acid]
in vivo force-frequency and relaxation-frequency relationships [1]: enhances the in vivo force-frequency and relaxation-frequency relationships
binding to nuclear T3 receptors [2]: binds
Thyrotropin ([3]; normal volunteers n=7, after 2 weeks (1.875 mg/kg/day)): 0.69 ± .38 mu/L
Thyrotropin ([3]; normal volunteers n=7, after 4 weeks (3.75 mg/kg/day)): 0.44 ± .29 mu/L
Free T4 [3, 8]: 0.95 ± .07 ng/dL
Total T4 [3, 8]: 5.76 ± .39 µg/dL
rT3 [3, 8]: 47.41 ± 7.11 ng/dL
Free T4 [3, 9]: 1.05 ± .06 ng/dL
Total T4 [3, 9]: 5.89 ± .44 µg/dL
rT3 [3, 9]: 69.56 ± 9.93 ng/dL
average values for thyrotropin ([3]; normal volunteers, after two additional weeks at 3.75 mg/kg, normal range 0.48 to 4.0 μU/ml): 0.44±0.29 μU/ml
calcium transport in the sarcoplasmic reticulum (SR) ([4]; post-infarction heart failure in rabbits): enhances calcium transport in the sarcoplasmic reticulum (SR)
contraction-frequency relationship ([4]; single myocytes from infarcted rabbit hearts): prevents the flattened contraction-frequency relationship
left ventricular (LV) performance [5]: improve left ventricular (LV) performance
Shortening velocity [6, 10]: 0.55 ± 0.09 circ/sec
Ratio of early to late filling [6, 10]: 0.89 ± 0.17
LV diastolic dimension [6, 10]: 6.83 ± 0.35 cm
Fractional shortening [6, 10]: 13.8 ± 2.4%
Isovolumic relaxation time ([6]; echocardiography, after 2 weeks (1.875 mg/kg daily), contrast baseline to 2 weeks P = 0.051): 87.5 ± 9.2^++ msec
LV mass [6, 10]: 474.2 ± 38.2 g
Shortening velocity [6, 11]: 0.57 ± 0.10 circ/sec
Ratio of early to late filling [6, 11]: 1.16 ± 0.26
LV end-systolic dimension [6, 11]: 6.01 ± 0.33 cm
LV diastolic dimension [6, 11]: 6.96 ± 0.30 cm
Fractional shortening [6, 11]: 13.8 ± 2.5%
Isovolumic relaxation time ([6]; echocardiography, after 4 weeks (3.75 mg/kg daily), ANOVA P 0.045): 84.4 ± 8.5 ms
LV mass [6, 11]: 477.9 ± 40.5 g
LV end-systolic dimension ([6]; heart failure patients n=9, echocardiography, after 2 weeks (1.875 mg/kg daily)): 5.87 ± 0.30 cm
arrhythmias ([7]; heart failure patients): No arrhythmias were noted
clinical manifestations of hyperthyroidism ([7]; heart failure patients): not observed
frequency or severity of anginal attacks ([7]; heart failure patients): no increase in frequency or severity of anginal attacks
Weight ([7]; heart failure patients n=9, after 4 weeks (last 2 weeks 3.75 mg/kg daily)): 94.7 ± 18.8 kg
Weight ([7]; heart failure patients n=9, oral, after 2 weeks (1.875 mg/kg daily)): 98.2 ± 19.3 kg
decrease in body weight ([7]; heart failure patients, DITPA group, after 4 weeks, P=0.059 vs placebo): 4 kg
NY Heart Association functional class [7, 12]: 2.4 ± 0.2
Diastolic Blood Pressure [7, 12]: 65.7 ± 3.3 mm Hg
Heart Rate [7, 12]: 83.4 ± 6.5 beats/min
Systolic Blood Pressure [7, 12]: 116.2 ± 7.4 mm Hg
NY Heart Association functional class [7, 13]: 2.5 ± 0.2
Radionuclide Ejection Fraction ([7]; heart failure patients, after 4 weeks (3.75 mg/kg daily), baseline 18.1 ± 2.4): 20.6 ± 3.2%
Diastolic Blood Pressure [7, 13]: 66.4 ± 3.6 mm Hg
Heart Rate [7, 13]: 82.2 ± 4.7 beats/min
Systolic Blood Pressure [7, 13]: 119.1 ± 6.1 mm Hg
tolerability ([7]; patients with ischemic heart disease / heart failure): well tolerated
